Test results from PubChem BioAssay (NCI).
Where “and” joins values, the source holds several entries; their conditions need not be identical. Identical values can stand only once.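 These data come from cells grown in 96-well plates and exposed to compound for 48 hours at five concentrations. GI50 is the concentration that inhibits growth by half. Definition used: TGI = concentration required for complete inhibition of growth.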

Experiments:
Test in all cases: growth of human tumour cells (NCI), 48 h
HL-60(TB) leukemia = test system: HL-60(TB) leukemia
RXF 393 renal = test system: RXF 393 renal
OVCAR-3 ovarian = test system: OVCAR-3 ovarian
T-47D breast = test system: T-47D breast
SN12C renal = test system: SN12C renal
IGROV1 ovarian = test system: IGROV1 ovarian
ACHN renal = test system: ACHN renal
HOP-62 NSCLC = test system: HOP-62 NSCLC
TK-10 renal = test system: TK-10 renal
MOLT-4 leukemia = test system: MOLT-4 leukemia

Compound | TGI (HL-60(TB) leukemia) | TGI (RXF 393 renal) | TGI (OVCAR-3 ovarian) | TGI (T-47D breast) | TGI (SN12C renal) | TGI (IGROV1 ovarian) | TGI (ACHN renal) | TGI (HOP-62 NSCLC) | TGI (TK-10 renal) | TGI (MOLT-4 leukemia) | GI50 (HL-60(TB) leukemia) [µM] | GI50 (RXF 393 renal) | GI50 (OVCAR-3 ovarian) | GI50 (T-47D breast) | GI50 (SN12C renal) | GI50 (IGROV1 ovarian) | GI50 (ACHN renal) | GI50 (HOP-62 NSCLC) [µM] | GI50 (TK-10 renal) | GI50 (MOLT-4 leukemia) [µM]
COc1cc(OC)c(/C=C\c2ccnc3ccccc23)c(OC)c1 | 0.963 µM | 11.6 µM | 12.8 µM | 15.6 µM | 16.3 µM | 15.5 µM | 17.5 µM | 18.6 µM | 17.8 µM | 11.8 µM | – | – | – | – | – | – | – | – | – | –
Clc1ccc2c(c1)N(CCCN1CCCC1)c1ccccc1S2 | 16.8 µM | 12.1 µM | 22.9 µM | 28.5 µM | 27.3 µM | 23.3 µM | 17.9 µM | 26.6 µM | 26 µM | 15.9 µM | 4.34 | 3.47 µM | 10.4 µM | 12.4 µM | 11.7 µM | 7.84 µM | 4.86 µM | 12.6 | 13 µM | 4.09
CCCCCCCCN(CCCCCCCC)CCCCCCNc1cc(OC)cc2cccnc12 | 37.3 µM | 28.5 µM | 4.09 µM | 27.5 µM | 6.9 µM | 29.4 µM | 23.7 µM | 23.5 µM | 36 µM | 42.9 µM | 16.4 | 14.2 µM | 2.01 µM | 12.1 µM | 2.58 µM | 13.2 µM | 11 µM | 11.1 | 20.3 µM | 16.3
C=CC(C1=CC(=O)C(OC)=CC1=O)c1ccccc1 (stereo not given) | 6.72 µM | 29.2 µM | 31.2 µM | 8.9 µM | 28 µM | 30.3 µM | 27.4 µM | 32.4 µM | 32 µM | 5.81 µM | – | – | – | – | – | – | – | – | – | –
O=C(/C(=C\c1ccc([N+](=O)[O-])cc1)S(=O)Cc1ccc(F)cc1)c1ccc(F)cc1 (stereo not given) | 5.38 µM | 3.38 µM | 3.01 µM | 6.57 µM | 3.99 µM | 3.49 µM | 6.51 µM | 8.28 µM | 7 µM | 5.06 µM | 2.09 | 1.78 µM | 1.63 µM | 2.08 µM | 1.9 µM | 1.69 µM | 2.33 µM | 2.74 | 2.31 µM | 1.51
CC1=CC(=C(c2ccc(N)cc2)c2ccc(N)cc2)C=CC1=N | 3.51 µM and > 21.6 µM | 12.2 µM and 34.5 µM and 22.9 µM | 5.49 µM and 15.1 µM and 5.5 µM | 2.73 µM and 11.8 µM and 8.81 µM | 13.5 µM and 10 µM and 69.3 µM | 35.9 µM and > 57.7 µM and 35.1 µM | 18.1 µM and 44.9 µM and 24.3 µM | 1.98 µM and 7.16 µM | 15.6 µM and 50.2 µM and 19.5 µM | 6.77 µM and > 67 µM | 0.482 | 3.17 µM and 5.67 µM | 1.41 µM and 2.14 µM | 0.27 µM and 1.31 µM | 0.422 µM and 0.456 µM | 4.06 µM and 5.72 µM | 3.9 µM and 5.01 µM | 0.486 | 2.99 µM and 4.98 µM | 1.49
Cc1ccc(C(SCC(N)C(=O)O)(c2ccc(C)cc2)c2ccc(C)cc2)cc1 (stereo not given) | 8.09 µM | 14.8 µM | 7.39 µM | 21.9 µM | 18.4 µM | 29.5 µM | > 68.3 µM | 22.3 µM | 22.6 µM | 20.2 µM | 2.53 | 1.46 µM | 2.22 µM | 3.5 µM | 2.74 µM | 10.3 µM | 14.5 µM | 6.52 | 8.31 µM | 3.81
Cc1cc(O)ccc1C1=NN(c2ccc(S(C)(=O)=O)cc2)C(=O)CC1 | 48.4 µM | > 100 µM | 9.44 µM | > 100 µM | > 100 µM | > 100 µM | > 100 µM | > 100 µM | > 100 µM | > 100 µM | 3.52 | 12.8 µM | 3.41 µM | 20.2 µM | 7.18 µM | 7.13 µM | 37.8 µM | 9.07 | 80.5 µM | 14.3
CC(C)(C)C(=O)OCOP(=O)(OCOC(=O)C(C)(C)C)C1CC(O)N(O)C1=O (stereo not given) | 22.1 µM | 7.71 µM | > 100 µM | 89.7 µM | 9.56 µM | 9.72 µM | > 100 µM | 26.8 µM | > 100 µM | > 100 µM | 3.44 | 2.37 µM | 9.79 µM | 5.9 µM | 2.87 µM | 2.83 µM | 6.04 µM | 5.28 | 20.2 µM | 3.91
CC1(C)CCC2=C(O1)c1ccccc1C(=O)C2=O | > 100 µM | 3.04 µM and 2.94 µM | 2.9 µM and 0.698 µM | 4.4 µM and 1.87 µM | 2.2 µM and 1.04 µM | 3.55 µM and 3.39 µM | 2.97 µM and 2.18 µM | 4.14 µM and 1.48 µM | 3.34 µM and 4.56 µM | 7.92 µM | 2.83 | 1.66 µM | 1.31 µM | 1.49 µM | 0.855 µM | 1.8 µM and 1.78 µM | 1.62 µM and 1.02 µM | 1.82 | 1.83 µM | 2.67
O=C1C(=O)c2c(nc3ccc(Br)cn23)-c2ccccc21 | 0.624 µM | 2.97 µM | 0.889 µM | 3.89 µM | 0.806 µM | 2.74 µM | 1.55 µM | 3.04 µM | 3.78 µM | 2.22 µM | 0.242 | 1.55 µM | 0.265 µM | 1.44 µM | 0.329 µM | 1.05 µM | 0.452 µM | 1.59 | 2.28 µM | 0.447
C/C(=C\CCc1ccoc1)CC/C=C(\C)CCCN1CCOCC1 | 5.5 µM | 23.2 µM | 15.3 µM | 13.1 µM | 21 µM | 36.8 µM | 24.1 µM | 25.6 µM | 23.8 µM | 16.9 µM | 2.5 | 9.17 µM | 3.73 µM | 3.62 µM | 6.83 µM | 15.4 µM | 8.24 µM | 12.2 | 11 µM | 4.2
Cc1ccccc1-n1ncc(C(=O)c2ccccc2)c1N | > 25 µM | > 25 µM | > 25 µM | > 25 µM | > 25 µM | > 25 µM | > 25 µM | > 25 µM | > 25 µM | > 25 µM | > 25 | > 25 µM | > 25 µM | > 25 µM | > 25 µM | > 25 µM | > 25 µM | > 25 | > 25 µM | > 25
